{"source": "patent US20160033480A1", "about": "“Immunovir and Components, Immunovir A, B, C, D Utility and Useful Processes” (priority 2013, published 2016)", "key": {"mMφ/Mo": {"test_system": "mMφ/Mo", "experiment": "Effect on mice macrophages/mononuclear cells activities in vivo after CP immunosuppression", "conditions": "immunovirs 10 mg/kg or AZT 20 mg/kg via tail vein day 2 to 5; CP-treated mice; FIG. 5", "method": "Two mice of each group were injected with 10 mg/kg.b.w of immunovir (O, mixture), immunovir A, B, C, D, or 20 mg/kg.b.w of AZT via tail vein in the afternoon from day 2 to day 5, respectively. Each mouse's abdominal cavity was injected with 0.5 mL of RTAC in the afternoon of day 5, and mMφ/Mo were collected from each mouse's abdominal cavity with 10 mL of R7 1⁄2C in the afternoon of day 6. Basal medium rich in deposit cells were taken, and 0.40 mL was pipetted into two wells of flat-bottomed 24-well Falcon culture dish. After incubation with 5% CO2 for 6 hours, 0.10 mL of cRBC (1%) was added into each well and incubation was carried out for 6 hours or overnight. Then suspended cells, i.e., cRBC, were sucked out, the well was gently washed with 0.5 mL of RPMI 1640, and 0.40 mL of RBMI 1640 and 5 ul of Liu Stain B solution were added again to stain mMφ, whereas cRBCs were unstainable. CP immuno suppression was removed by Immunovir(mix), Immunovir […]. but not AZT in mouse's body, and the efficacy of Mφ/Mo activity increased as shown in FIG. 5."}, "HIV1": {"test_system": "HIV1", "experiment": "Anti-HIV1 activity in human venous blood mononuclear cells (HIV1P24 expression)", "assay_type": "cell-based", "conditions": "21 days culture; FIG. 6", "method": "Mononuclear cells derived from human venous blood (1×10^7 cells/0.80 mL) were suspended in capped Greiner incubation tube with R20C containing 40 ug/mL rIL-2, and 0.10 mL of immunovir (40 ug/mL or diluted with 4 fold) or, as a comparison, AZT (100, 10, or 1 ug/mL), then incubated in 5% CO2 incubator at 36-37° C. for 21 days.\nCells were precipitated by centrifugation (250 g, 5 minutes) every 3 days, and culture medium were replaced to fresh ones with identical ingredients. For antigen expression, cells were stained by mouse anti-HIV1P24 IgG1 and rabbit anti-mouse IgG1-FITC.\nThe percentage of cells with HIV1P24 gag gene expression, i.e., the ratio of fluorescent cells detected by indirect fluorescent antibody technique was calculated."}, "[1]": {"test_system": "guinea pig peritoneal derived adherent macrophages (gMφ)", "experiment": "Effect on cellular immunity in vitro: gMφ killer cell activity against cRBC with or without cyclophosphamide", "assay_type": "cell-based", "conditions": "second 20-hours incubation without CP; FIG. 4-1"}, "Yac-1 cells": {"test_system": "Yac-1 cells", "experiment": "Mononuclear killer cell activity derived from mouse's spleen (51Cr release from Yac-1 cells)", "assay_type": "in vivo, BALB/c mice", "conditions": "CP 200 and 100 mg/kg day 1 and 2; immunovir 10 mg/kg every day; spleens day 7"}, "[2]": {"experiment": "Bioactivity of separated immunovir components (test not specified)"}, "cRBC": {"test_system": "cRBC", "experiment": "Hemagglutination activity", "assay_type": "cell-based, chicken", "conditions": "0.4% v/v cRBC, room temperature, 2 hours", "method": "Immunovir A, B, C, and D, or concanavalin A with different concentrations were added into 2 mL of normal saline 0.4% v/v cRBC suspension in Kahn tube. The solution was mixed thoroughly and kept at room temperature for 2 hours to observe hema-agglutination."}}, "data": [{"molecule": "Cc1cn([C@H]2C[C@H](N=[N+]=[N-])[C@@H](CO)O2)c(=O)[nH]c1=O", "note": "[AZT]", "values": [{"measurement": "removal of CP immuno suppression in mouse's body (Mφ/Mo activity)", "setting": "mMφ/Mo", "result": "not"}, {"measurement": "anti-HIV1 activities compared", "setting": "HIV1", "result": "approximately the same"}]}, {"molecule": "O=P1(N(CCCl)CCCl)NCCCO1", "note": "(stereo not drawn) [CP, Cyclophosphamide]", "values": [{"measurement": "activity of gMφ after removal of CP", "setting": "[1]", "result": "unrecoverable"}, {"measurement": "radioactivity released (51Cr from Yac-1 cells)", "setting": "Yac-1 cells", "result": "inhibited"}]}, {"molecule": "CO[C@H]1O[C@H](CO)[C@@H](O)[C@H](O)[C@@H]1O", "note": "[methyl-a-mannopyranoside]", "values": [{"measurement": "bioactivity", "setting": "[2]", "result": "low bioactivity"}]}, {"molecule": "concanavalin A", "values": [{"measurement": "nature of hema-agglutination of cRBC (resuspension by shaking)", "setting": "cRBC", "result": "firmly agglutinated with concanavalin A and could not be resuspended by shaking"}]}]}
